In ChEMBL document CHEMBL3046070, “New N-arylamino biquinoline derivatives: microwave-assisted synthesis and their antimicrobial activities” (2013):
≈ marks a conversion by molar mass, not a printed value.

How the values were obtained:
Format in all cases: functional
Aspergillus fumigatus = assay: Antifungal activity against Aspergillus fumigatus MTCC 3008 assessed as growth inhibition after overnight incubation by NCCLS broth microdilution method
Candida albicans = assay: Antifungal activity against Candida albicans MTCC 227 assessed as growth inhibition after overnight incubation by NCCLS broth microdilution method
Bacillus subtilis = assay: Antibacterial activity against Bacillus subtilis MTCC 441 assessed as growth inhibition after overnight incubation by NCCLS broth microdilution method
Vibrio cholerae = assay: Antibacterial activity against Vibrio cholerae MTCC 3906 assessed as growth inhibition after overnight incubation by NCCLS broth microdilution method
Streptococcus pneumoniae = assay: Antibacterial activity against Streptococcus pneumoniae MTCC 1936 assessed as growth inhibition after overnight incubation by NCCLS broth microdilution method
Salmonella typhi = assay: Antibacterial activity against Salmonella enterica subsp. enterica serovar Typhi MTCC 98 assessed as growth inhibition after overnight incubation by NCCLS broth microdilution method
Escherichia coli = assay: Antibacterial activity against Escherichia coli MTCC 443 assessed as growth inhibition after overnight incubation by NCCLS broth microdilution method
Clostridium tetani = assay: Antibacterial activity against Clostridium tetani MTCC 449 assessed as growth inhibition after overnight incubation by NCCLS broth microdilution method

Molecule | MIC (Aspergillus fumigatus) | MIC (Candida albicans) | MIC (Bacillus subtilis) | MIC (Vibrio cholerae) | MIC (Streptococcus pneumoniae) | MIC (Salmonella typhi) | MIC (Escherichia coli) | MIC (Clostridium tetani)
CCOC(=O)C1=C(N)N(Nc2ccc(Cl)cc2)C2=C(C(=O)CC(C)(C)C2)C1c1cc2cc(C)ccc2nc1Cl (stereo unspecified) | > 1000 µg/mL | 500 µg/mL (≈ 884 µM) | 500 µg/mL (≈ 884 µM) | 250 µg/mL (≈ 442 µM) | 500 µg/mL (≈ 884 µM) | 200 µg/mL (≈ 354 µM) | 62.5 µg/mL (≈ 111 µM) | 200 µg/mL (≈ 354 µM)
CCOC(=O)C1=C(N)N(Nc2ccc(C)cc2)C2=C(C(=O)CC(C)(C)C2)C1c1cc2cc(OC)ccc2nc1Cl (stereo unspecified) | > 1000 µg/mL | 500 µg/mL (≈ 891 µM) | 200 µg/mL (≈ 356 µM) | 500 µg/mL (≈ 891 µM) | 100 µg/mL (≈ 178 µM) | 62.5 µg/mL (≈ 111 µM) | 125 µg/mL (≈ 223 µM) | 125 µg/mL (≈ 223 µM)
CCOC(=O)C1=C(N)N(Nc2ccc(Br)cc2)C2=C(C(=O)CC(C)(C)C2)C1c1cc2cc(OC)ccc2nc1Cl (stereo unspecified) | 500 µg/mL (≈ 799 µM) | > 1000 µg/mL | 250 µg/mL (≈ 399 µM) | 200 µg/mL (≈ 320 µM) | 250 µg/mL (≈ 399 µM) | 200 µg/mL (≈ 320 µM) | 200 µg/mL (≈ 320 µM) | 200 µg/mL (≈ 320 µM)
CCOC(=O)C1=C(N)N(Nc2ccc(F)cc2)C2=C(C(=O)CC(C)(C)C2)C1c1cc2cc(OC)ccc2nc1Cl (stereo unspecified) | > 1000 µg/mL | 1000 µg/mL (≈ 1770 µM) | 200 µg/mL (≈ 354 µM) | 250 µg/mL (≈ 442 µM) | 250 µg/mL (≈ 442 µM) | 200 µg/mL (≈ 354 µM) | 125 µg/mL (≈ 221 µM) | 250 µg/mL (≈ 442 µM)
CCOC(=O)C1=C(N)N(Nc2ccc(Br)cc2)C2=C(C(=O)CC(C)(C)C2)C1c1cc2cc(C)ccc2nc1Cl (stereo unspecified) | 1000 µg/mL (≈ 1640 µM) | 500 µg/mL (≈ 820 µM) | 100 µg/mL (≈ 164 µM) | 500 µg/mL (≈ 820 µM) | 250 µg/mL (≈ 410 µM) | 500 µg/mL (≈ 820 µM) | 500 µg/mL (≈ 820 µM) | 500 µg/mL (≈ 820 µM)
CCOC(=O)C1=C(N)N(Nc2ccc(OC)cc2)C2=C(C(=O)CC(C)(C)C2)C1c1cc2cc(C)ccc2nc1Cl (stereo unspecified) | 500 µg/mL (≈ 891 µM) | 250 µg/mL (≈ 446 µM) | 250 µg/mL (≈ 446 µM) | 250 µg/mL (≈ 446 µM) | 125 µg/mL (≈ 223 µM) | 100 µg/mL (≈ 178 µM) | 250 µg/mL (≈ 446 µM) | 250 µg/mL (≈ 446 µM)
CCOC(=O)C1=C(N)N(Nc2ccc(Cl)cc2)C2=C(C(=O)CC(C)(C)C2)C1c1cc2ccccc2nc1Cl (stereo unspecified) | 250 µg/mL (≈ 453 µM) | 1000 µg/mL (≈ 1810 µM) | 200 µg/mL (≈ 363 µM) | 250 µg/mL (≈ 453 µM) | 200 µg/mL (≈ 363 µM) | 250 µg/mL (≈ 453 µM) | 200 µg/mL (≈ 363 µM) | 125 µg/mL (≈ 227 µM)
CC1(C)S[C@@H]2[C@H](NC(=O)[C@H](N)c3ccccc3)C(=O)N2[C@H]1C(=O)O [AMPICILLIN] | – | – | 250 µg/mL (≈ 715 µM) | 100 µg/mL (≈ 286 µM) | 100 µg/mL (≈ 286 µM) | 100 µg/mL (≈ 286 µM) | 100 µg/mL (≈ 286 µM) | 250 µg/mL (≈ 715 µM)
NYSTATIN | 100 µg/mL | 100 µg/mL | – | – | – | – | – | –
CCOC(=O)C1=C(N)N(Nc2ccc(F)cc2)C2=C(C(=O)CC(C)(C)C2)C1c1cc2ccccc2nc1Cl (stereo unspecified) | 500 µg/mL (≈ 935 µM) | 250 µg/mL (≈ 467 µM) | 200 µg/mL (≈ 374 µM) | 200 µg/mL (≈ 374 µM) | 200 µg/mL (≈ 374 µM) | 100 µg/mL (≈ 187 µM) | 100 µg/mL (≈ 187 µM) | 200 µg/mL (≈ 374 µM)
CCOC(=O)C1=C(N)N(Nc2ccc(C)cc2)C2=C(C(=O)CC(C)(C)C2)C1c1cc2cc(Cl)ccc2nc1Cl (stereo unspecified) | > 1000 µg/mL | 250 µg/mL (≈ 442 µM) | 250 µg/mL (≈ 442 µM) | 500 µg/mL (≈ 884 µM) | 100 µg/mL (≈ 177 µM) | 500 µg/mL (≈ 884 µM) | 500 µg/mL (≈ 884 µM) | 500 µg/mL (≈ 884 µM)
CCOC(=O)C1=C(N)N(Nc2ccc(C)cc2)C2=C(C(=O)CC(C)(C)C2)C1c1cc2cc(C)ccc2nc1Cl (stereo unspecified) | > 1000 µg/mL | 1000 µg/mL (≈ 1830 µM) | 250 µg/mL (≈ 459 µM) | 500 µg/mL (≈ 917 µM) | 250 µg/mL (≈ 459 µM) | 500 µg/mL (≈ 917 µM) | 250 µg/mL (≈ 459 µM) | 500 µg/mL (≈ 917 µM)
O=C(O)c1cn(C2CC2)c2cc(N3CCNCC3)c(F)cc2c1=O [CIPROFLOXACIN] | – | – | – | 25 µg/mL (≈ 75.4 µM) | 50 µg/mL (≈ 151 µM) | 25 µg/mL (≈ 75.4 µM) | 25 µg/mL (≈ 75.4 µM) | –
CCOC(=O)C1=C(N)N(Nc2ccc(Cl)cc2)C2=C(C(=O)CC(C)(C)C2)C1c1cc2cc(OC)ccc2nc1Cl (stereo unspecified) | > 1000 µg/mL | 500 µg/mL (≈ 860 µM) | 250 µg/mL (≈ 430 µM) | 250 µg/mL (≈ 430 µM) | 250 µg/mL (≈ 430 µM) | 100 µg/mL (≈ 172 µM) | 100 µg/mL (≈ 172 µM) | 250 µg/mL (≈ 430 µM)
CCOC(=O)C1=C(N)N(Nc2ccc(OC)cc2)C2=C(C(=O)CC(C)(C)C2)C1c1cc2ccccc2nc1Cl (stereo unspecified) | 500 µg/mL (≈ 914 µM) | 250 µg/mL (≈ 457 µM) | 250 µg/mL (≈ 457 µM) | 200 µg/mL (≈ 366 µM) | 200 µg/mL (≈ 366 µM) | 200 µg/mL (≈ 366 µM) | 50 µg/mL (≈ 91.4 µM) | 100 µg/mL (≈ 183 µM)
CCOC(=O)C1=C(N)N(Nc2ccccc2)C2=C(C(=O)CC(C)(C)C2)C1c1cc2ccccc2nc1Cl (stereo unspecified) | > 1000 µg/mL | 250 µg/mL (≈ 484 µM) | 200 µg/mL (≈ 387 µM) | 500 µg/mL (≈ 967 µM) | 200 µg/mL (≈ 387 µM) | 200 µg/mL (≈ 387 µM) | 50 µg/mL (≈ 96.7 µM) | 500 µg/mL (≈ 967 µM)
